Among the data in patent US7429659B2, “Furan compounds as histamine H3 modulators” (Janssen Pharmaceutica N.V., priority 2004, dated 2008) are Ki values, retold here.

Broadly, the Ki is the equilibrium dissociation constant of an inhibitor or competing ligand from its target.

In this assay the target is T1, human histamine H3 receptor (Homo sapiens, UniProt Q9Y5N1).
T1 construct: One μg supercoiled H3 receptor cDNA was added to the cells; expressed in transfected cells; membranes prepared from cell pellets
Kind of assay: [3H]-N-Methylhistamine binding to membranes of histamine H3 receptor-expressing SK-N-MC cells. The following applies: 0.8 nM [3H]-N-methylhistamine, 60 min at 25° C., SK-N-MC cell membranes; Ki=(IC50)/(1+([L]/(KD)). The method, then: Cells were grown to about 70% to 80% confluence and removed from the plate with trypsin and pelleted in a clinical centrifuge. […] One μg supercoiled H3 receptor cDNA was added to the cells and mixed gently. […] Colonies that survived selection were grown and tested. SK-N-MC cells were used because they give efficient coupling for inhibition of adenylate cyclase. The clones that gave the most robust inhibition of adenylate cyclase in response to histamine were used for further study.
Supernatants from an 800 g spin were collected and were recentrifuged at 30,000 g for 30 min. Pellets were re-homogenized in 50 mM Tris/5 mM EDTA (pH 7.4). Membranes were incubated with 0.8 nM [^3H]-N-methylhistamine plus/minus test compounds for 60 min at 25° C. and were harvested by rapid filtration over GF/C glass fiber filters (pretreated with 0.3% polyethylenimine) followed by four washes with buffer. Filters were added to 5 mL of scintillation cocktail, and the signal was then counted on a liquid scintillation counter.

SMILES strings stand for the structures. Counter-ions that a name gives are not always drawn.

T1 sequence (Q9Y5N1 whole entry): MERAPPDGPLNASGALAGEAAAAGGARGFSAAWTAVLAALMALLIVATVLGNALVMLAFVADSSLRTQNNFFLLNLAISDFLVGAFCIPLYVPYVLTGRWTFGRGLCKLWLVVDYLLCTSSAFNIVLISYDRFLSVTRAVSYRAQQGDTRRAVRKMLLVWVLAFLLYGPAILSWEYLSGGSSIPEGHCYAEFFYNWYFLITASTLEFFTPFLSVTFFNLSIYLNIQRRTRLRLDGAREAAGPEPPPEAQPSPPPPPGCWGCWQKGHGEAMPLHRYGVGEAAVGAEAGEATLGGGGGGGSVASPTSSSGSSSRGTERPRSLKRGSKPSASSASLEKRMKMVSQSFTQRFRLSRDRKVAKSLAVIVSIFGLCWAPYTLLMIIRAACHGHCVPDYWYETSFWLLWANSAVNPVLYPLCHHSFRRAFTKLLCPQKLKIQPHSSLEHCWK

With `CC(C)N1CCN(C(=O)c2ccc(CN3CCC(F)CC3)o2)CC1` [Example 19, [5-(4-Fluoro-piperidin-1-ylmethyl)-furan-2-yl]-(4-isopropyl-piperazin-1-yl)-methanone, fumarate salt], the Ki stood at 64 nM.
